“And” between values parts separate entries of the source, which are not always exact repeats. Equal entries are not always repeated. Marks after values point to notes of the source that are not given here.
Legend:
[1] = known ibuprofen salts; cited from earlier work
[2] = Thermal stability by TG analysis; type: physicochemical
Solubility = type: physicochemical; settings: for Solubility in water: deionised water, 25 °C; for Solubility in phosphate buffer pH = 5.4: pH 5.4, 25 °C; for Solubility in phosphate buffer pH = 7.4: pH 7.4, 25 °C
[3] = n-octanol/water and n-octanol/phosphate buffer partition coefficient; type: physicochemical; settings: for log PpH=5.4: n-octanol/phosphate buffer pH 5.4, 25 °C; for log PpH=7.4: n-octanol/phosphate buffer pH 7.4, 25 °C
[4] = Skin permeation studies in Franz diffusion cells; type: in vitro ADME, porcine; settings: after 24 h permeation from ethanolic solution into acceptor phase
[5] = Accumulation in the skin after 24 h permeation; type: in vitro ADME, porcine; settings: after 24 h skin permeation from ethanolic solution; for Skin accumulation: acceptor fluid pH 7.4, n = 3
[6] = Britton–Robinson buffer at pH 7.4 as acceptor and donor solution; cited from earlier work
[7] = Solubility in organic solvents by modified Vogel's method; type: physicochemical; settings: 25 °C
L929 cell lines = settings: high concentrations; cited from earlier work

For `CC(C)Cc1ccc(C(C)C(=O)[O-])cc1.CCCCn1cc[n+](C)c1` (stereo not shown) [[BMIm][IBU]], the “log P” value [1] is given as 1.15.
For `CC(C)Cc1ccc(C(C)C(=O)O)cc1.CCOC(=O)[C@@H](N)C(C)C` [[ValOEt][IBU], L-valine ethyl ester ibuprofenate], the “T onset, the onset temperature of the thermal degradation” value (“T onset, the onset temperature” for short) [2] was 89.5 °C, the Solubility in water (Solubility) was 5.542 ± 0.007 g dm^−3 and the “Solubility in phosphate buffer pH = 5.4” value (Solubility) was 3.969 ± 0.056 g dm^−3. The “Solubility in phosphate buffer pH = 7.4” value (Solubility) was 5.206 ± 0.044 g dm^−3, the “log PpH=5.4” value [3] was 2.023 ± 0.001 and the “log PpH=7.4” value [3] was 1.026 and 1.026 ± 0.001. For the same compound, the “Permeation as % applied dose of IBU” value [4] was 7.33%, the “Skin accumulation as % applied dose of IBU” value [5] was 3.5% and the Skin accumulation [5] was 412.19 ± 38.45 μg IBU g^−1.
For `CC(C)Cc1ccc(C(C)C(=O)O)cc1` (racemic) [rac-IBU, 2-(4-isobutylphenyl)-propionic acid, reference compound], the “T onset, the onset temperature” value [2] was 189.8 °C, the “log PpH=5.4” value [3] was 3.192 and the “log PpH=7.4” value [3] was 1.284. For the same compound, the logP ([3]; n-octanol/water) was 2.415 ± 0.001, the “Permeation as % applied dose of IBU” value [4] was 6.06% and the “Skin accumulation as % applied dose of IBU” value [5] was 3.1%. The Skin accumulation [5] was 745.69 ± 61.87 μg IBU g^−1 and the Flux [6] was 0.542 μg cm^−2 h^−1.
For “L-valine isopropyl ester ibuprofenate [[ValOiPr][IBU]]”, the “T onset, the onset temperature” value [2] was 90.2 °C, the “log PpH=5.4” value [3] was 2.186 ± 0.001 and the “log PpH=7.4” value [3] was 1.172 ± 0.001. For the same compound, the “Permeation as % applied dose of IBU” value [4] was 12.09%, the “Skin accumulation as % applied dose of IBU” value [5] was 4.9% and the Skin accumulation [5] was 630.75 ± 61.87 ^a μg IBU g^−1.
With `CC(C)Cc1ccc(C(C)C(=O)O)cc1.CCCCCCOC(=O)[C@@H](N)C(C)C` [[ValOHex][IBU], L-valine hexyl ester ibuprofenate] the “T onset, the onset temperature” value [2] was 128.9 °C, the “Solubility in hexane (in words)” value [7] was “soluble (soluble when more than 100 mg of compound was soluble in 1 cm^3)” and the Solubility in water (Solubility) was 1.058 ± 0.002 g dm^−3. The “Solubility in phosphate buffer pH = 5.4” value (Solubility) was 0.759 ± 0.006 g dm^−3, the “Solubility in phosphate buffer pH = 7.4” value (Solubility) was 1.233 ± 0.001 g dm^−3 and the “log PpH=5.4” value [3] was 2.880 ± 0.011. The “log PpH=7.4” value [3] was 1.279 and 1.279 ± 0.001, the “Permeation as % applied dose of IBU” value [4] was 9.81% and the Skin accumulation [5] was 612.86 ± 129.33 ^a μg IBU g^−1.
For `CC(C)Cc1ccc(C(C)C(=O)[O-])cc1.CCCC[P+](CCCC)(CCCC)CCCC` [[P4,4,4,4][IBU]], the “log P” value [1] is given as 1.54.
With `CC(C)Cc1ccc(C(C)C(=O)O)cc1.CCCOC(=O)[C@@H](N)C(C)C` [[ValOPr][IBU], L-valine propyl ester ibuprofenate] the “T onset, the onset temperature” value [2] was 109.5 °C, the Solubility in water (Solubility) was 4.221 ± 0.033 g dm^−3 and the “Solubility in phosphate buffer pH = 5.4” value (Solubility) was 3.057 ± 0.045 g dm^−3. For the same compound, the “Solubility in phosphate buffer pH = 7.4” value (Solubility) was 5.367 ± 0.019 g dm^−3, the “log PpH=5.4” value [3] was 2.061 ± 0.001 and the “log PpH=7.4” value [3] was 1.197 ± 0.003. For the same compound, the “Permeation as % applied dose of IBU” value [4] was 13.55%, the “Skin accumulation as % applied dose of IBU” value [5] was 5.9% and the Skin accumulation [5] was 726.42 ± 113.37 ^a μg IBU g^−1.
For `CC(C)Cc1ccc(C(C)C(=O)O)cc1.CCCCOC(=O)[C@@H](N)C(C)C` [[ValOBu][IBU], L-valine butyl ester ibuprofenate], the “T onset, the onset temperature” value [2] was 119.9 °C, the Solubility in water (Solubility) was 3.125 ± 0.007 g dm^−3 and the “Solubility in phosphate buffer pH = 5.4” value (Solubility) was 2.371 ± 0.016 g dm^−3. The “Solubility in phosphate buffer pH = 7.4” value (Solubility) was 3.089 ± 0.015 g dm^−3, the “Permeation as % applied dose of IBU” value [4] was 10.66% and the “Skin accumulation as % applied dose of IBU” value [5] was 7.0%. For the same compound, the Skin accumulation [5] was 815.14 ± 58.92 ^b μg IBU g^−1.
For `CC(C)Cc1ccc(C(C)C(=O)[O-])cc1.CCCCCC[N+](CCCCCC)(CCCCCC)CCCCCC` [[N6,6,6,6][IBU]], the “Increase in flux compared to IBU” value [6] is given as “four–five-fold” and the “log P” value [1] is given as 2.47.
In the case of `CC(C)Cc1ccc(C(C)C(=O)O)cc1.CCCCCOC(=O)[C@@H](N)C(C)C` [[ValOAm][IBU], L-valine pentyl ester ibuprofenate], the “T onset, the onset temperature” value [2] is reported as 129.8 °C, the “Solubility in hexane (in words)” value [7] is reported as “partly soluble (partly soluble when 33–100 mg of compound dissolved in 1 cm^3)” and the Solubility in water (Solubility) is reported as 1.798 ± 0.019 g dm^−3. The “Solubility in phosphate buffer pH = 5.4” value (Solubility) was 1.380 ± 0.007 g dm^−3, the “Solubility in phosphate buffer pH = 7.4” value (Solubility) was 1.931 ± 0.008 g dm^−3 and the “log PpH=5.4” value [3] was 2.421 ± 0.002. For the same compound, the “log PpH=7.4” value [3] was 1.259 ± 0.001, the “Permeation as % applied dose of IBU” value [4] was 11.79% and the Skin accumulation [5] was 565.60 ± 71.09 ^a μg IBU g^−1.
In the case of `CC(C)Cc1ccc(C(C)C(=O)[O-])cc1.CCCCCCCCCC[N+](C)(C)CCCCCCCCCC` [[N1,1,10,10][IBU]], the “Increase in flux compared to IBU” value [6] is given as “four–five-fold” and the “log P” value [1] is given as 1.87.
For `CCOC(=O)[C@@H]1CCCN1` [proline ethyl ester], the Decrease of viability (L929 cell lines) is given as 20%.

Reference: article PMC9049830 (RSC Advances, 2020)
